# Measured values as given in patent publication US11123398B2, “Chemotherapeutic combinations of cationic antimicrobial peptides and chemotherapeutics” (LYTIX BIOPHARMA AS, priority 2014, dated 2021).
# Where two headings read alike, the source gives them in different places. Non-standard residues stand in square brackets, D forms with d. Residues, ends and D or L forms follow the SMILES beside them. Dip = N[C@H](C(=O)O)C(c1ccccc1)c1ccccc1
# Columns and labels:
# Assay type in all cases: cell-based, human
# SK-OV-3 cell line = settings: 4 h
# Description: (§1) Tumor cells were plated in 96-well flat-bottom microtitration plates (Nunc, Dutscher, Brumath, France) and incubated at 37° C. for 24 hours before treatment in 190 μl of drug-free culture medium supplemented or not with 10% FBS for adherent or suspension growing cell lines, respectively.
# (§2) The adherent cell lines were washed once with 200 μl FBS-free culture medium before treatment. Tumor cells were incubated for 4 hours with 10 concentrations of compounds in ¼ dilution step with a top dose of 400 μM (range 4×10^−4 to 4×10^−10 M), with 1% (final concentration) Triton X-100 as positive control and FBS-free culture medium as negative control. The cells (190 μl) were incubated in a 200 μl final volume of FBS-free culture medium containing test substances at 37° C. under 5% CO2.
# (§3) Three independent experiments were performed, each concentration being tested in quadruplicate. Control cells were treated with vehicle alone. At the end of treatments, the cytotoxic activity was evaluated by a MTS assay (see § 3.3.).
# (§4) Like MTT, MTS is bioreduced by cells into a formazan product that is directly soluble in culture medium without processing, unlike MTT.
# (§5) At the end of the cells treatment, 40 μl of a 0.22 μm filtered freshly combined solution of MTS (20 ml at 2 mg/ml, Ref G1111, Batch 235897, Exp March 2009, Promega, Charbonnières, France) and PMS (1 ml at 0.92 mg/ml, Ref P9625, Batch 065K0961, Sigma) in Dulbecco's Phosphate Buffered Saline (DPBS, Ref 17-513Q, Batch 6MB0152, Cambrex), were added in each well. Culture plates were incubated for 2 h at 37° C. Absorbency (OD) were measured at 490 nm in each well using VICTOR^3™ 1420 multilabeled counter (Wallac, PerkinElmer, Courtaboeuf, France).
# (§6) IC50: drug concentration to obtain a 50% inhibition of cell proliferation.
# (§7) The dose-response curves were plotted using XLFit 3 (IDBS, United Kingdom). The IC50 determination values were calculated using the XLFit 3 software from semi-log curves. Individual IC50 determination values as well as mean and SD values were generated.
# T-47D cell line = settings: 4 h
# Description: as §1, §2, §3, §4, §5, §6, §7
# Raji cell line = settings: 4 h
# Description: (§8) Tumor cells were plated in 96-well flat-bottom microtitration plates (Nunc, Dutscher, Brumath, France) and incubated at 37° C. for 24 hours before treatment in 190 μl of drug-free and FBS-free culture medium.
# as §2, with “Tumor” for “The adherent cell lines were washed once with 200 μl FBS-free culture medium before treatment. Tumor”, “[…]” for “4×10^−10”
# (§9) Three independent experiments were performed, each concentration being issued from quadruplicate. Control cells were treated with vehicle alone. At the end of treatments, the cytotoxic activity was evaluated by a MTS assay (see § 3.3 below).
# as §4, §5
# (§10) 4.1. IC50 Data was Determined as in Example 1
# U-937 cell line = settings: 4 h
# Description: as §8
# as §2, with “Tumor” for “The adherent cell lines were washed once with 200 μl FBS-free culture medium before treatment. Tumor”, “[…]” for “4×10^−10”
# as §9, §4, §5, §10
# A375 cells = experiment: MTT viability assay, A375 melanoma; settings: read-out: IC-50, melanoma cells, MTT
# Description: The cytotoxic effect of LTX-315 was investigated using the colorimetric MTT viability assay as described in Eliassen et al. (2002), 22(5): pp 2703-10. The A375 cells were seeded at a concentration of 1×10^5 cells/ml in a volume of 0.1 ml in 96-well plates, and allowed to adhere in a complete growth media overnight. The media was then removed and the cells were washed twice in serum-free, RPMI-1650 media, before adding LTX-315 dissolved in serum-free RPMI at concentrations ranging from 2.5-300 μg/ml, and incubated for 5-180 minutes. Cells treated with a serum-free RPMI were used as negative control cells, while cells treated with 1% Triton X-100 in serum-free media were used as a positive control. The final results were calculated using the mean of three experiments, each with triplicate wells.
smiles,measurement,setting,value
"NCCCC[C@H](NC(=O)[C@@H](NC(=O)[C@H](Cc1c[nH]c2ccccc12)NC(=O)[C@H](CCCCN)NC(=O)[C@H](CCCCN)NC(=O)[C@H](Cc1c[nH]c2ccccc12)NC(=O)[C@H](Cc1c[nH]c2ccccc12)NC(=O)[C@H](CCCCN)NC(=O)[C@@H](N)CCCCN)C(c1ccccc1)c1ccccc1)C(N)=O [LTX-315, K-K-W-W-K-K-W-Dip-K-NH2] (H-KKWWKKW[Dip]K-NH2)",IC50,SK-OV-3 cell line,7.16 ± 0.99 µM
same,IC50,T-47D cell line,1.18 ± 0.25 µM
same,IC50,Raji cell line,4.93 ± 1.03 µM
same,IC50,U-937 cell line,1.15 ± 0.42 µM
same,IC50,A375 cells; 90 minutes of incubation,14 µM
same,IC50,A375 cells; five minutes of incubation,30 µM
